In article PMC5059489, “Mechanistic evaluation and transcriptional signature of a glutathione S-transferase omega 1 inhibitor” (Nature Communications, 2016):
Values joined by “and” are separate entries in the source; they are usually repeats but may differ in a detail not shown here. Identical values can stand only once.

Tests used:
endogenous GSTO1 = biological target: T1, endogenous GSTO1 (Homo sapiens, UniProt P78417); assay: In-gel fluorescence competitive CMFDA binding assay, endogenous GSTO1 in HCT116; conditions: 10 µM; inhibition of CMFDA binding, HCT116
T1 sequence (P78417 1-241): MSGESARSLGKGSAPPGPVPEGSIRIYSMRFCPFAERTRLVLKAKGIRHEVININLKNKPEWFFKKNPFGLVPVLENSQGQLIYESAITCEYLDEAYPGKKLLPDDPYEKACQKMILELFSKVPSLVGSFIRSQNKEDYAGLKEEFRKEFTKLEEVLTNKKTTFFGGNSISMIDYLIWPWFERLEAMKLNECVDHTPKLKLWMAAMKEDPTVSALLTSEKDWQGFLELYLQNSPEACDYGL
Description: (§1) Primary screening of GSTO inhibitors was based on competitive inhibition of CMFDA binding to endogenous GSTO. Briefly, HCT116^p53+/+ cells (4 × 10^4 per well) were coated in a 12-well plate. […] Cells were then washed with PBS and lysed using Cell Lytic M buffer (Sigma). […] Gels were immediately scanned on a Typhoon variable mode imager (Amersham Bioscience). Quantification of fluorescent band intensity was done using Image Quant 5.2 software.

HCT116 cells = assay: Bru-seq nascent RNA profiling; conditions: C1-14 (10 μM) 4 h vs DMSO
Description: The data set was analysed using the DAVID, ingenuity pathway analysis (IPA) and GSEA for pathway identification. […] Data sets with nearly 250 genes containing the gene identifiers and fold changes were uploaded to the IPA web-based application and each gene identifier was mapped to its corresponding gene object in the ingenuity pathways knowledge base. Finally, the biological function genes were ordered by P value of significance and maximum number of genes in the pathway. Bru-Seq data were further analysed using GSEA for exploring the mechanism of cellular action of GSTO1 and its inhibitor. A pre-ranked gene list of the Bru-Seq data set was submitted to GSEA, and enrichment analysis was done based on the Kolmogorov–Smirnov statistic[59][60]. […] For each gene set, the ES (enrichment score) was normalized to account for differences in gene set size and the false discovery rate relative to the normalized enrichment score values was calculated.

GSTO1 [1] = biological target: T2, GSTO1 (Homo sapiens, UniProt P78417); assay: In-gel fluorescence competitive CMFDA binding assay, recombinant GSTO1; conditions: inhibition of CMFDA binding
T2 sequence (P78417 1-241): T1 sequence (P78417 1-241)
Description: as §1

GSTO1 [2] = biological target: T2, GSTO1; assay: GSTO1 substrate assay (reduction of 4-NPG)
Description: For activity screening, we adapted a GSTO1 substrate assay that relies on the quantification of the reduction of S-(4-nitrophenacyl)glutathione (4-NPG), a GSTO1-specific substrate[17], using recombinant human GSTO1 in a high-throughput screening format.
Enzyme activity was measured by monitoring the reduction of 4-NPG to 4-nitroacetophenone by GSTO1.

HCT116p53+/+ cell = assay: MTT cell proliferation at single concentration; type: cell-based, human
Description: Cell proliferation was assessed by a MTT assay. Cancer cells were seeded in 96-well microtitre plates and, after overnight attachment, treated with GSTO1 inhibitors. After 72 h, MTT solution (3 mg ml^−1; 20 μl) was added to each well and cells were incubated for 3 h at 37 °C. After incubation, media from each well was removed and the dark blue formazan crystals formed by live cells were dissolved in DMSO (150 μl per well). The absorbance intensity was measured at 570 nm on a microplate reader (Molecular Devices, Sunnyvale, CA, USA). Cell viability after 24 h treatment was assessed using ApoTox-Glo triplex assay (Promega) according to the manufacturer's protocol. At least three independent dose–response experiments with each concentration tested in triplicate were performed for each cell line.

## CN(C)c1ccc(Cl)cc1NC(=O)CCl [C1-14]
Endogenous GSTO1
  GSTO binding assay (% Inhibition at 10 µM) Endogenous: 6.7%
HCT116 cells
  ATP5L2 fold change: 0.70
  ATP6AP1L fold change: 0.71
  AURKAPS1 fold change: 0.68
  BACE1-AS fold change: 0.60
  HFM1 fold change: 8.78
  HIST1H1E fold change: 8.67
  HIST1H2AC fold change: 5.52
  HIST1H2AG fold change: 10.36
  HIST1H2AH fold change: 6.00
  HIST1H2AI fold change: 8.25
  HIST1H2AJ fold change: 11.27
  HIST1H2BJ fold change: 5.45
  HIST1H2BL fold change: 15.96
  HIST1H2BN fold change: 5.80
  HIST1H3H fold change: 6.41
  HIST1H4C fold change: 5.72
  HIST1H4D fold change: 7.81
  HIST1H4K fold change: 18.57
  HIST2H2AB fold change: 5.21
  HIST2H3D fold change: 7.39
  HIST3H2BB fold change: 6.97
  HIST4H4 fold change: 7.84
  HSP90AB4P fold change: 0.72
  HUS1B fold change: 0.46
  IER3 fold change: 0.72
  LINC00115 fold change: 0.64
  LINC00311 fold change: 0.62
  LINC00471 fold change: 0.67
  P2RX5-TAX1BP3 fold change: 0.65
  REP15 fold change: 0.70
  RIBC2 fold change: 0.70
  RPA4 fold change: 0.69
  RPPH1 fold change: 16.74
  SCARNA10 fold change: 5.37
  SLC7A5P1 fold change: 0.38
  TIGD6 fold change: 0.71
  TNFAIP3 fold change: 0.71
  TYRO3P fold change: 0.65
  ZNF572 fold change: 0.70
  ZNF670-ZNF695 fold change: 0.58
GSTO1 [1]
  GSTO binding assay (% Inhibition at 10 µM) Recombinant: -15.6%
GSTO1 [2]
  GSTO substrate assay % Inhibition at 10 µM: 16.5%

## CCN1CCC(NC(=O)CCl)CC1 [C2-1]
Endogenous GSTO1
  GSTO binding assay (% Inhibition at 10 µM) Endogenous: 45.0%
HCT116p53+/+ cell
  % Inhibition of HCT116p53+/+ cell proliferation at 10 µM: 65.6% and 62.7%
GSTO1 [1]
  GSTO binding assay (% Inhibition at 10 µM) Recombinant: -0.8%
GSTO1 [2]
  GSTO substrate assay % Inhibition at 10 µM: 54.8%

## CN(CC(=O)N1CCOCC1)C(=O)CCl [C4-12]
Endogenous GSTO1
  GSTO binding assay (% Inhibition at 10 µM) Endogenous: -29.3%
HCT116p53+/+ cell
  % Inhibition of HCT116p53+/+ cell proliferation at 10 µM: 91.1% and 92.6%
GSTO1 [1]
  GSTO binding assay (% Inhibition at 10 µM) Recombinant: -4.7%
GSTO1 [2]
  GSTO substrate assay % Inhibition at 10 µM: 81.7%

## N#Cc1cnn(-c2ccccc2)c1NC(=O)CCl [C2-6]
Endogenous GSTO1
  GSTO binding assay (% Inhibition at 10 µM) Endogenous: 25.2%
HCT116p53+/+ cell
  % Inhibition of HCT116p53+/+ cell proliferation at 10 µM: -17% and -9.7%
GSTO1 [1]
  GSTO binding assay (% Inhibition at 10 µM) Recombinant: 36.8%
GSTO1 [2]
  GSTO substrate assay % Inhibition at 10 µM: 84.5%

## COc1ccc2cc(CN(C)C(=O)CCl)ccc2c1 [C4-6]
Endogenous GSTO1
  GSTO binding assay (% Inhibition at 10 µM) Endogenous: 49.5%
HCT116p53+/+ cell
  % Inhibition of HCT116p53+/+ cell proliferation at 10 µM: 44.1% and 68.5%
GSTO1 [1]
  GSTO binding assay (% Inhibition at 10 µM) Recombinant: 55.2%
GSTO1 [2]
  GSTO substrate assay % Inhibition at 10 µM: 29.3%

## CN(CCCNC(=O)CCl)c1ccccc1 [C3-16]
Endogenous GSTO1
  GSTO binding assay (% Inhibition at 10 µM) Endogenous: 45.4%
HCT116p53+/+ cell
  % Inhibition of HCT116p53+/+ cell proliferation at 10 µM: 28.7%
GSTO1 [1]
  GSTO binding assay (% Inhibition at 10 µM) Recombinant: 23.7%
GSTO1 [2]
  GSTO substrate assay % Inhibition at 10 µM: 83.1%

## O=C(CCl)NCC(=O)Nc1ccc(F)c(F)c1 [C3-25]
Endogenous GSTO1
  GSTO binding assay (% Inhibition at 10 µM) Endogenous: 57.1%
HCT116p53+/+ cell
  % Inhibition of HCT116p53+/+ cell proliferation at 10 µM: 64.5% and 67.8%
GSTO1 [1]
  GSTO binding assay (% Inhibition at 10 µM) Recombinant: 36.2%
GSTO1 [2]
  GSTO substrate assay % Inhibition at 10 µM: 82.4%

## O=C(CCl)N1CCN(Cc2ccc(Br)s2)CC1 [C5-10]
Endogenous GSTO1
  GSTO binding assay (% Inhibition at 10 µM) Endogenous: 55.8%
HCT116p53+/+ cell
  % Inhibition of HCT116p53+/+ cell proliferation at 10 µM: 71.5% and 90.4%
GSTO1 [1]
  GSTO binding assay (% Inhibition at 10 µM) Recombinant: 59.8%
GSTO1 [2]
  GSTO substrate assay % Inhibition at 10 µM: 68.3%
GSTO1 [2]; read-out: GSTO substrate assay IC50, cluster screening tables
  IC50: 411 nM

## Cc1cccc2sc(N(Cc3ccccc3)C(=O)CCl)nc12 [C4-16]
Endogenous GSTO1
  GSTO binding assay (% Inhibition at 10 µM) Endogenous: 30.0%
HCT116p53+/+ cell
  % Inhibition of HCT116p53+/+ cell proliferation at 10 µM: 86.3% and 89.8%
GSTO1 [1]
  GSTO binding assay (% Inhibition at 10 µM) Recombinant: 66.3%
GSTO1 [2]
  GSTO substrate assay % Inhibition at 10 µM: 32.6%

## Cc1cc(NC(=O)CCl)ccc1N1CCCC1 [C1-16]
Endogenous GSTO1
  GSTO binding assay (% Inhibition at 10 µM) Endogenous: 46.7%
HCT116p53+/+ cell
  % Inhibition of HCT116p53+/+ cell proliferation at 10 µM: 41.9%
GSTO1 [1]
  GSTO binding assay (% Inhibition at 10 µM) Recombinant: 49.2%
GSTO1 [2]
  GSTO substrate assay % Inhibition at 10 µM: 87.8%

## CN(C)C(CNC(=O)CCl)c1ccccc1 (centres unmarked) [C3-12]
Endogenous GSTO1
  GSTO binding assay (% Inhibition at 10 µM) Endogenous: 9.7%
HCT116p53+/+ cell
  % Inhibition of HCT116p53+/+ cell proliferation at 10 µM: 5%
GSTO1 [1]
  GSTO binding assay (% Inhibition at 10 µM) Recombinant: 22.0%
GSTO1 [2]
  GSTO substrate assay % Inhibition at 10 µM: 83.2%

## O=C(CCl)NCC1COc2ccccc2O1 (centres unmarked) [C3-9]
Endogenous GSTO1
  GSTO binding assay (% Inhibition at 10 µM) Endogenous: 53.9%
HCT116p53+/+ cell
  % Inhibition of HCT116p53+/+ cell proliferation at 10 µM: 24.9%
GSTO1 [1]
  GSTO binding assay (% Inhibition at 10 µM) Recombinant: 30.7%
GSTO1 [2]
  GSTO substrate assay % Inhibition at 10 µM: 80.7%

## CCOC(=O)c1c(NC(=O)CCl)sc(Cc2ccc3c(c2)OCO3)c1C [C2-13]
Endogenous GSTO1
  GSTO binding assay (% Inhibition at 10 µM) Endogenous: 41.3%
HCT116p53+/+ cell
  % Inhibition of HCT116p53+/+ cell proliferation at 10 µM: 38.1%
GSTO1 [1]
  GSTO binding assay (% Inhibition at 10 µM) Recombinant: 48.1%
GSTO1 [2]
  GSTO substrate assay % Inhibition at 10 µM: 25.9%
